Experimental data taken from US8114840B2, “Medicament containing activated antithrombin III” (Hamburger Stiftung zur Forderung Von Wissenschaft und Kultur, priority 2000, dated 2012).

Key:
[1] = system: thrombocytes; assay: Adhesion of thrombocytes to adhesion proteins (microtitre plate, hexosaminidase); type: cell-based; settings: for inhibition of IDAAT-mediated adhesion: Heparan sulfate 0-10 μg/ml, sulfatide 0-20 μg/ml; for inhibition of IDAAT-mediated adhesion of thrombocytes to collagen / inhibition of IDAAT-mediated adhesion of thrombocytes to thrombospondin (immobilized TSP-1): EDTA 5 mM; for inhibition of IDAAT-mediated adhesion of thrombocytes to thrombospondin (immobilized TSP-1): integrins 5 μg/ml, Wortmannin 20 nM, LY294002 50 μm, clone 37 with Fc receptor blocked by IV.3
Procedure: The adhesion of thrombocytes was carried out according to Santoro et al, 1994. […] Non-adhering thrombocytes were thoroughly washed out. The number of adhering platelets was determined by lysing the platelets with Triton X-100 and determining the lysosomal enzyme hexosaminidase. In order to calibrate the adhesion assay a calibration series containing a known and increasing number of platelets was added to the microtitre plate and the absorbance of the reacted substrate p-nitrophenyl-N-acetyl-β-glucosaminide was determined in relation to the number of platelets.

[2] = system: TNF α; assay: TNF α secretion of monocytes activated with S. aureus and interferon γ (ELISA); type: cell-based; settings: substance alone
Procedure: FIG. 9: The IL-10 secretion of monocytes activated with S. aureus and interferon γ is increased by IDAAT. Thus IDAAT promotes the secretion of an interleukin which protects against LPS-induced lethality in animal experiments. The method used was carried out analogously to FIG. 8. IL-10 was determined by means of an ELISA. FIG. 10 (sequence in the figure title: SEQ ID NO:2): The TNF α secretion of monocytes activated with S. aureus and interferon γ is inhibited by the TSP-1 peptide […] NO: 2) (10a). […] TNF α was determined by means of an ELISA. The method used was carried out analogously to FIG. 8. FIG. 11: IDAAT inhibits the Arthus reaction in the ear of Balb-C mice • a) Mouse treated twice intraperitoneally at time 0 and 0+3 hours with 50 μg IDAAT each time. Arthus reaction in the left ear • b) Mouse treated intraperitoneally twice with control buffer. Arthus reaction in the left ear • c) BSA-FITC incorporated into the ears as a measure for the Arthus reaction in mice treated with IDAAT or control buffer. Arthus reaction in the left ear. FIG. 12: • a) dot plot of the thrombocyte-bacterial association • A: thrombocytes labelled with PE-conjugated anti-GPIX antibody (Beb 1) • B: bacteria (S. aureus) labelled with Syto 13 • C: bacteria-thrombocyte associates emitting both fluorescences • b) S. aureus (Cowan 1)-thrombocyte associates

[3] = system: S. aureus binding to thrombocytes; assay: S. aureus-thrombocyte associate formation, flow cytometry; type: cell-based
Procedure: Thrombocytes were labelled with a thrombocyte-specific phycoerythrin-conjugated anti-GPIX antibody (clone Beb 1). Bacteria (various S. aureus strains) were adjusted with Tris-buffered saline solution (TBS) to a number of 250,000 microorganisms/μl and labelled with the RNA-dye Syto 13 [MoBiTec, Göttingen] at a concentration of 2 μM. Labelled bacteria and labelled thrombocytes were co-incubated for 10 minutes at a ratio of 10:1.
The cell population were analysed in a flow cytometer. Cells that were positive for both fluorochromes were classified as associates (see FIG. 12a). Thrombin stimulation and release of TSP from the α-granula of the platelets increased the percentage of platelets carrying bacteria by 2.5-fold relative to the total number of thrombocytes.

[4] = system: thrombocytes; assay: Thrombocyte aggregation according to Born; type: cell-based; settings: purified thrombospondin 25 μg/ml alone
Procedure: Gel-filtered platelets (200,000/μl) in Hepes-Tyrode buffer pH 7.4 containing fibrinogen (100 μg/ml) were examined in an aggregometer according to Born.
The method used was elucidated in detail in the description of the example. FIG. 21: The addition of monocytes (100/μl) to thrombocytes (300,000/μl) increases the adhesion of thrombocytes to TSP-1, whereas the addition of erythrocytes (20,000/μl) has an inhibitory effect. The method used was elucidated in detail in the description of the example. FIG. 22: The IDAAT-induced thrombocyte adhesion was inhibited by the inhibitors of PI-3 kinase Wortmannin (20 nM) and LY294002 (50 μm). For this purpose Wortmannin and LY294002 were preincubated for 10 minutes before adding IDAAT. FIG. 23: IDAAT mediates thrombospondin-mediated thrombocyte aggregation Thrombocyte aggregation was carded out according to Born 1962. TSP-1 (25 μg/ml) was pipetted into an aggregation-cuvette containing gel-filtered platelets (200,000/μl) in Hepes-Tyrode buffer pH 7.4 containing 100 μg/ml fibrinogen. […] Addition of IDAAT led to a weak aggregation reaction Simultaneous addition of IDAAT and soluble TSP-1 led to a pronounced aggregation. FIG. 24: IDAAT mediates the microparticle formation of thrombocytes

[5] = system: monocytes; assay: TSP-1 binding to monocytes, flow cytometry with anti-TSP antibody clone P10-PE; type: cell-based, human; settings: 10 μg/ml purified TSP-1, without IDAAT; ~1% without additions
Procedure: Whereas without the addition of purified TSP-1 and without the addition of IDAAT only ˜1% of eluted human monocytes could be detected in a flow cytometer by an antibody (clone P10) which recognizes TSP-1 on the cell surface, the number increases to ca. 5% by adding 10 μg/ml purified TSP-1.
(§1) Apoptotic PMNL were incubated for 30 minutes with Hepes-Tyrode buffer pH 7.4, washed, labelled with the anti-TSP antibody P10-PE and the fluorescence of 3000 cells was measured in a flow cytometer • b) PMNL were made apoptotic by incubation in a cell culture medium for 24 hours in an incubator according to Savill et al., 1992. Apoptotic PMNL were incubated for 30 minutes with TSP-1 (5 μg/ml) and IDAAT (10 μg/ml) in Hepes-Tyrode buffer pH 7.4, washed, labelled with the TSP antibody P10-PE and the fluorescence of 3000 cells was measured in a flow cytometer. • c) Procedure as in a and b: IDAAT was used at increasing concentrations, IDAAT mediates the binding of thrombospondin (10 μg/ml) that was either present endogenously or added exogenously. FIG. 3: IDAAT cross-links apoptotic PMNL with monocytes by means of TSP Eluted PMNL and eluted monocytes were incubated together for 30 minutes at room temperature with TSP and IDAAT at various concentrations and the cells were fixed. […] PE and FITC positive associates were measured using a flow cytometer. […]

[6] = system: monocytes through a HMEC-1 monolayer; assay: Transmigration of monocytes through endothelium (Transwell); type: cell-based, human; settings: purified TSP 25 μg/ml
Procedure: Transmigration experiments were carried out as described by Kielbassa et al., 1998. The addition of IDAAT to the culture medium of the monocytes during a transmigration experiment stimulates dose-dependently the transmigration of monocytes through the endothelium by 2-3-fold (see FIG. 4).
as §1, with “exogenously.” for “exogenously. FIG. 3: IDAAT cross-links apoptotic PMNL with monocytes by means of TSP Eluted PMNL and eluted monocytes were incubated together for 30 minutes at room temperature with TSP and IDAAT at various concentrations and the cells were fixed.”
After a 4 hour transmigration period, the inserts were carefully removed, the cell culture plate was placed for 30 min on ice in order to detach the adhered monocytes and the number of transmigrated monocytes was counted.

sulfatide
inhibition of IDAAT-mediated adhesion [1]: do not inhibit

Heparan sulfate
inhibition of IDAAT-mediated adhesion [1]: do not inhibit

RFYVVMWK (listed as Homo sapiens) [TSP-1 peptide RFYVVMWK]
release/secretion of TNF α [2]: inhibited

Thrombin [reference compound]
increase of percentage of platelets carrying bacteria ([3]; thrombin stimulation, release of TSP from α-granula): 2.5 fold

TSP-1: thrombospondin-1, trimeric modular glycoprotein purified from human thrombocytes
S. aureus (Cowan-1)-thrombocyte associates ([3]; TSP-1 added in addition to IDAAT): further increase in the number of associates | inhibition of IDAAT-mediated adhesion of thrombocytes to collagen [1]: inhibits | inhibition of IDAAT-mediated adhesion of thrombocytes to thrombospondin (immobilized TSP-1) [1]: inhibits | adhesion of thrombocytes to collagen ([1]; FIG. 20, dose dependence): dose-dependently inhibits | thrombocyte aggregation [4]: no aggregation | TSP-1 positive monocytes [5]: ca. 5% | transmigration of monocytes [6]: stimulates the transmigration

O=C(O)CN(CCN(CC(=O)O)CC(=O)O)CC(=O)O [EDTA]
inhibition of IDAAT-mediated adhesion of thrombocytes to collagen [1]: completely inhibits | inhibition of IDAAT-mediated adhesion of thrombocytes to thrombospondin (immobilized TSP-1) [1]: completely inhibits
